Experimental data from patent US20190307818A1, “NOVEL ANTIMICROBIAL COMPOSITIONS AND METHODS OF USE” (priority 2016, published 2019).

Target: T1, RhlR (Pseudomonas aeruginosa, UniProt P54292)
T1 construct: expressed in transfected cells; host or cells: E. coli TOP10 carrying pBAD-A 6xHIS-rhlR and pCS26 prhlA-luxCDABE
Experiment: Two plasmid E. coli RhlR reporter (luciferase)
Format: cell-based, P. aeruginosa
Settings: read-out: Percent Activity (RhlR reporter)
Excerpt: A two plasmid E. coli reporter system was constructed, in which LasR or RhlR was expressed under an arabinose inducible promoter (e.g., LasR or RhlR was cloned into a pBAD-A vector and expressed upon addition of arabinose) in the presence of a LasR-dependent or RhlR-dependent promoter fused to luciferase (e.g., cloned into a pCS26 vector). Upon the addition of arabinose and in the presence of AI, LasR or RhlR were expressed, formed a complex with the cognate AI, underwent dimerization, and activated transcription of the reporter construct. All potential inhibitors were tested at 100 μM. The percent activity was reported relative to wild-type (100%).
A sample experimental protocol for the RhlR reporter (see, e.g., Table 5A2) or for the LasR reporter (see, e.g., Table 5A1).
For the RhlR reporter, strains were re-streaked on LB+appropriate antibiotic before each experiment and grown overnight at 37° C. Three colonies were picked and a 3 mL overnight culture in LB+appropriate antibiotic was started. The culture was grown overnight at 37° C. The overnight culture was back-diluted 1:1000 into fresh LB+appropriate antibiotic in an appropriate volume, depending on the number of plates being screened. Each well in a 384 well plate received about 20 μL of culture. An additional 25 mL of culture was reserved for priming the plate filler. The culture was grown at 37° C. until OD600˜0.5, which took about 4 hrs. A 384-well plate was prepared. Stock concentrations of molecules (e.g., small molecule inhibitors) were 10 mM.
For a 10-point dose response for the RhlR reporter, a 1:3 dilution of molecule:DMSO (333 μL of stock molecule, 667 μL of DMSO using a 1 mL pipetteman) was used for accurate dispensing by the robot dispenser. Upon a prompt by the software, the appropriate concentration of each molecule was added. Each well was normalized with a DMSO standard to bring the total % volume of DMSO up to 1% using the robot. Plates were set aside with dispensed drugs until the cells were ready. Once the cells reached an OD600 of 0.5, an appropriate amount of cell culture was dispensed for screening into an Erlenmeyer flask. (Extra culture was saved for a negative control.) Arabinose was added to 0.1% final concentration (1:1000 dilution from stock solution), and AI was added to 10 μM (ED75) from a 10 mM stock. The components of the flask were mixed together by swirling. As mentioned previously, other concentrations of AIs may be suitable, e.g., the concentrations may be in the range of 2 uM to 100 uM, from 10 uM to 100 uM or from 2 uM to 10 uM. In some embodiments, 2 nM of 3-O—C12-HSL (for LasR) and 10 uM of C4-HSL (for RhlR) were used.
A clean plate was filled with water, 70% ethanol, LB, and primed with cultured cells to ensure that initial dispensing led to the appropriate volume of cells being added to the wells. 20 μL of this solution was dispensed into appropriate wells in a 384-well plate that contained small molecule antagonists. 20 μL of this solution was dispensed into wells intended for a positive control that contain only DMSO. To the culture that was saved for negative control, arabinose was added to 0.1%. An equal volume of DMSO was added to the culture, relative to the amount of AI added to the other culture. 20 μL of culture was dispensed into wells intended for a negative control that contained only DMSO and no small molecule QS inhibitors. Plates were incubated at 30° C. in the plate shaker. Plates were read using a 384 LUM/OD 600 setting on the plate reader after 4 hours of induction.
For data analysis, the average and standard deviation for each of the control groups were determined. In a screen, for each data point, the number of standard deviations from the mean was determined to determine if the inhibitor was a “hit”. In a dose response curve, for each data point, the percent inhibition was determined: 1−(X/M), where X=single data point and M=is the mean of the AI only control group. […]

T1 sequence (P54292 whole entry): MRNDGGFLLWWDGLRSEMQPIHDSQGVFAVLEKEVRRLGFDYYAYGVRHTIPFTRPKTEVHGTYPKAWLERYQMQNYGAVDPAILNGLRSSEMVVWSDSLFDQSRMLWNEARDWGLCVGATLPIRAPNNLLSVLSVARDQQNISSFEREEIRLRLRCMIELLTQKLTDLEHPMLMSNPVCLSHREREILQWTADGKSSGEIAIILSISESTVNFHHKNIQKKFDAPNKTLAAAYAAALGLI

## O=c1cc(-c2ccccc2)oc2cc(O)c(O)c(O)c12 [Molecule 46, Baicalein]
  remaining activity at 100 µM: 57.4%
